# Test results published in publication PMC6409085, “Three odorant-binding proteins are involved in the behavioral response of Sogatella furcifera to rice plant volatiles” (PeerJ, 2019).
# “And” between values parts separate entries of the source, which are not always exact repeats. Equal values may be shown once.
# How the values were obtained:
# Test in all cases: biochemical
# Format in all cases: binding
# SfurOBP11 = SfurOBP11 (Sogatella furcifera, UniProt V5T6E3)
# Procedure, shortened: (§1)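 Fluorescence competitive binding with 1-NPN as reporter: 2.0 µM protein and 2.0 µM 1-NPN in 50 mM Tris-HCl pH 7.4, odorant added at 2–20 µM final. Excitation 337 nm, emission 390–490 nm read 2 min after addition, triplicates. Ki = IC50/(1 + [1-NPN]/K1-NPN).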
# SfurOBP2 = SfurOBP2 (Sogatella furcifera, UniProt V5T759)
# Procedure, shortened: as §1
# SfurOBP3 = SfurOBP3 (Sogatella furcifera, UniProt V5T818); conditions: for Fluorescence competitive binding assay, fluorescence intensity: OBP3, three replicate columns
# Procedure, shortened: as §1
# SfurOBP1 = SfurOBP1 (Sogatella furcifera, UniProt V5T8N5); conditions: for Fluorescence competitive binding assay, fluorescence intensity: OBP1, three replicate columns
# Procedure, shortened: as §1
# Sequence of SfurOBP2 (V5T759 entry or part of it): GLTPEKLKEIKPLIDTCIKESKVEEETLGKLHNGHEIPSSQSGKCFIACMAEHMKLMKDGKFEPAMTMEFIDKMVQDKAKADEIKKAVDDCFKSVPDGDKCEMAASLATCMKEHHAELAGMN
# Sequence of SfurOBP11 (V5T6E3 entry or part of it): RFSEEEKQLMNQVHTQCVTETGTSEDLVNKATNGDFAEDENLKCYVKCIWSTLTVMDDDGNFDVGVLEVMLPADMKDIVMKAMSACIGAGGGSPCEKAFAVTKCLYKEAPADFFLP
# Sequence of SfurOBP3 (V5T818 entry or part of it): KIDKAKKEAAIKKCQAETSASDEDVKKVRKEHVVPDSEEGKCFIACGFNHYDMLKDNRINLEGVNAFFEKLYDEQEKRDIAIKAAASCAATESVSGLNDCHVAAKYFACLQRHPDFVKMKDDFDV
# Sequence of SfurOBP1 (V5T8N5 entry or part of it): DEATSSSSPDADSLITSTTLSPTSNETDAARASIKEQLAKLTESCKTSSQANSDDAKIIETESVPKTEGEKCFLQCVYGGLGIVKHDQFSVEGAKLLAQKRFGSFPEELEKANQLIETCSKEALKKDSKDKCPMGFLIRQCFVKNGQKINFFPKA
structure (smiles),measurement,setting,value
C/C(=C\CO)CCC[C@H](C)CCC[C@H](C)CCCC(C)C [plant alcohol],IC50,"SfurOBP11; SfurOBP11, protein and 1-NPN both 2.0 µM, competitor 2-20 µM, read-out: IC50",3.5 µM
same,"Fluorescence intensity, fluorescence competitive binding assay, OBP11","SfurOBP11; ligand concentration 2, replicate 1",16266
same,"Fluorescence intensity, fluorescence competitive binding assay, OBP11","SfurOBP11; ligand concentration 2, replicate 2",15087
same,"Fluorescence intensity, fluorescence competitive binding assay, OBP11","SfurOBP11; ligand concentration 2, replicate 3",17001
same,"Fluorescence intensity, fluorescence competitive binding assay, OBP11","SfurOBP11; ligand concentration 4, replicate 1",17687
same,"Fluorescence intensity, fluorescence competitive binding assay, OBP11","SfurOBP11; ligand concentration 4, replicate 2",17526
same,"Fluorescence intensity, fluorescence competitive binding assay, OBP11","SfurOBP11; ligand concentration 4, replicate 3",17848
same,"Fluorescence intensity, fluorescence competitive binding assay, OBP11","SfurOBP11; ligand concentration 6, replicate 1",16356
same,"Fluorescence intensity, fluorescence competitive binding assay, OBP11","SfurOBP11; ligand concentration 6, replicate 2",18409
same,"Fluorescence intensity, fluorescence competitive binding assay, OBP11","SfurOBP11; ligand concentration 6, replicate 3",17383
same,"Fluorescence intensity, fluorescence competitive binding assay, OBP11","SfurOBP11; ligand concentration 8, replicate 1",17184
same,"Fluorescence intensity, fluorescence competitive binding assay, OBP11","SfurOBP11; ligand concentration 8, replicate 2",18342
same,"Fluorescence intensity, fluorescence competitive binding assay, OBP11","SfurOBP11; ligand concentration 8, replicate 3",18652
same,"Fluorescence intensity, fluorescence competitive binding assay, OBP11","SfurOBP11; ligand concentration 10, replicate 1",18889
same,"Fluorescence intensity, fluorescence competitive binding assay, OBP11","SfurOBP11; ligand concentration 10, replicate 2",17441
same,"Fluorescence intensity, fluorescence competitive binding assay, OBP11","SfurOBP11; ligand concentration 10, replicate 3",20338
same,"Fluorescence intensity, fluorescence competitive binding assay, OBP11","SfurOBP11; ligand concentration 12, replicate 1",19011
same,"Fluorescence intensity, fluorescence competitive binding assay, OBP11","SfurOBP11; ligand concentration 12, replicate 2",18892
same,"Fluorescence intensity, fluorescence competitive binding assay, OBP11","SfurOBP11; ligand concentration 12, replicate 3",20835
same,"Fluorescence intensity, fluorescence competitive binding assay, OBP11","SfurOBP11; ligand concentration 14, replicate 1",21007
same,"Fluorescence intensity, fluorescence competitive binding assay, OBP11","SfurOBP11; ligand concentration 14, replicate 2",21377
same,"Fluorescence intensity, fluorescence competitive binding assay, OBP11","SfurOBP11; ligand concentration 14, replicate 3",20817
same,"Fluorescence intensity, fluorescence competitive binding assay, OBP11","SfurOBP11; ligand concentration 16, replicate 1",23140
same,"Fluorescence intensity, fluorescence competitive binding assay, OBP11","SfurOBP11; ligand concentration 16, replicate 2",21703
same,"Fluorescence intensity, fluorescence competitive binding assay, OBP11","SfurOBP11; ligand concentration 16, replicate 3",22422
same,"Fluorescence intensity, fluorescence competitive binding assay, OBP11","SfurOBP11; ligand concentration 18, replicate 1",27356
same,"Fluorescence intensity, fluorescence competitive binding assay, OBP11","SfurOBP11; ligand concentration 18, replicate 2",26038
same,"Fluorescence intensity, fluorescence competitive binding assay, OBP11","SfurOBP11; ligand concentration 18, replicate 3",25306
same,"Fluorescence intensity, fluorescence competitive binding assay, OBP11","SfurOBP11; ligand concentration 20, replicate 1",26659
same,"Fluorescence intensity, fluorescence competitive binding assay, OBP11","SfurOBP11; ligand concentration 20, replicate 2",25183
same,"Fluorescence intensity, fluorescence competitive binding assay, OBP11","SfurOBP11; ligand concentration 20, replicate 3",25906
same,IC50,"SfurOBP2; SfurOBP2, protein and 1-NPN both 2.0 µM, competitor 2-20 µM, read-out: IC50",> 20 µM
same,"Fluorescence competitive binding assay, OBP2 (raw fluorescence reading)","SfurOBP2; ligand concentration 2 (unit not given), replicate column 1 of 3",15935
same,"Fluorescence competitive binding assay, OBP2 (raw fluorescence reading)","SfurOBP2; ligand concentration 2 (unit not given), replicate column 2 of 3",15877
same,"Fluorescence competitive binding assay, OBP2 (raw fluorescence reading)","SfurOBP2; ligand concentration 2 (unit not given), replicate column 3 of 3",16010
same,"Fluorescence competitive binding assay, OBP2 (raw fluorescence reading)","SfurOBP2; ligand concentration 4 (unit not given), replicate column 1 of 3",16483
same,"Fluorescence competitive binding assay, OBP2 (raw fluorescence reading)","SfurOBP2; ligand concentration 4 (unit not given), replicate column 2 of 3",17483
same,"Fluorescence competitive binding assay, OBP2 (raw fluorescence reading)","SfurOBP2; ligand concentration 4 (unit not given), replicate column 3 of 3",15472
same,"Fluorescence competitive binding assay, OBP2 (raw fluorescence reading)","SfurOBP2; ligand concentration 6 (unit not given), replicate column 1 of 3",19539
same,"Fluorescence competitive binding assay, OBP2 (raw fluorescence reading)","SfurOBP2; ligand concentration 6 (unit not given), replicate column 2 of 3",15243
same,"Fluorescence competitive binding assay, OBP2 (raw fluorescence reading)","SfurOBP2; ligand concentration 6 (unit not given), replicate column 3 of 3",16407
same,"Fluorescence competitive binding assay, OBP2 (raw fluorescence reading)","SfurOBP2; ligand concentration 8 (unit not given), replicate column 1 of 3",19867
same,"Fluorescence competitive binding assay, OBP2 (raw fluorescence reading)","SfurOBP2; ligand concentration 8 (unit not given), replicate column 2 of 3",20728
same,"Fluorescence competitive binding assay, OBP2 (raw fluorescence reading)","SfurOBP2; ligand concentration 8 (unit not given), replicate column 3 of 3",17103
same,"Fluorescence competitive binding assay, OBP2 (raw fluorescence reading)","SfurOBP2; ligand concentration 10 (unit not given), replicate column 1 of 3",20161
same,"Fluorescence competitive binding assay, OBP2 (raw fluorescence reading)","SfurOBP2; ligand concentration 10 (unit not given), replicate column 2 of 3",19779
same,"Fluorescence competitive binding assay, OBP2 (raw fluorescence reading)","SfurOBP2; ligand concentration 10 (unit not given), replicate column 3 of 3",18765
same,"Fluorescence competitive binding assay, OBP2 (raw fluorescence reading)","SfurOBP2; ligand concentration 12 (unit not given), replicate column 1 of 3",19327
same,"Fluorescence competitive binding assay, OBP2 (raw fluorescence reading)","SfurOBP2; ligand concentration 12 (unit not given), replicate column 2 of 3",19917
same,"Fluorescence competitive binding assay, OBP2 (raw fluorescence reading)","SfurOBP2; ligand concentration 12 (unit not given), replicate column 3 of 3",19157
same,"Fluorescence competitive binding assay, OBP2 (raw fluorescence reading)","SfurOBP2; ligand concentration 14 (unit not given), replicate column 1 of 3",20768
same,"Fluorescence competitive binding assay, OBP2 (raw fluorescence reading)","SfurOBP2; ligand concentration 14 (unit not given), replicate column 2 of 3",19570
same,"Fluorescence competitive binding assay, OBP2 (raw fluorescence reading)","SfurOBP2; ligand concentration 14 (unit not given), replicate column 3 of 3",20399
same,"Fluorescence competitive binding assay, OBP2 (raw fluorescence reading)","SfurOBP2; ligand concentration 16 (unit not given), replicate column 1 of 3",18977
same,"Fluorescence competitive binding assay, OBP2 (raw fluorescence reading)","SfurOBP2; ligand concentration 16 (unit not given), replicate column 2 of 3",19385
same,"Fluorescence competitive binding assay, OBP2 (raw fluorescence reading)","SfurOBP2; ligand concentration 16 (unit not given), replicate column 3 of 3",18242
same,"Fluorescence competitive binding assay, OBP2 (raw fluorescence reading)","SfurOBP2; ligand concentration 18 (unit not given), replicate column 1 of 3",20374
same,"Fluorescence competitive binding assay, OBP2 (raw fluorescence reading)","SfurOBP2; ligand concentration 18 (unit not given), replicate column 2 of 3",20001
same,"Fluorescence competitive binding assay, OBP2 (raw fluorescence reading)","SfurOBP2; ligand concentration 18 (unit not given), replicate column 3 of 3",19071
same,"Fluorescence competitive binding assay, OBP2 (raw fluorescence reading)","SfurOBP2; ligand concentration 20 (unit not given), replicate column 1 of 3",20399
same,"Fluorescence competitive binding assay, OBP2 (raw fluorescence reading)","SfurOBP2; ligand concentration 20 (unit not given), replicate column 2 of 3",20700
same,"Fluorescence competitive binding assay, OBP2 (raw fluorescence reading)","SfurOBP2; ligand concentration 20 (unit not given), replicate column 3 of 3",18461
same,"Fluorescence competitive binding assay, fluorescence intensity",SfurOBP3; ligand concentration 2,81785 and 76872 and 83999
same,"Fluorescence competitive binding assay, fluorescence intensity",SfurOBP3; ligand concentration 4,101881 and 87909 and 87470
same,"Fluorescence competitive binding assay, fluorescence intensity",SfurOBP3; ligand concentration 6,71457 and 61006 and 51881
same,"Fluorescence competitive binding assay, fluorescence intensity",SfurOBP3; ligand concentration 8,71819 and 64171 and 69972
same,"Fluorescence competitive binding assay, fluorescence intensity",SfurOBP3; ligand concentration 10,63459 and 67080 and 84824
same,"Fluorescence competitive binding assay, fluorescence intensity",SfurOBP3; ligand concentration 12,64327 and 73125 and 73637
same,"Fluorescence competitive binding assay, fluorescence intensity",SfurOBP3; ligand concentration 14,85412 and 71741 and 71210
same,"Fluorescence competitive binding assay, fluorescence intensity",SfurOBP3; ligand concentration 16,78313 and 80279 and 70309
same,"Fluorescence competitive binding assay, fluorescence intensity",SfurOBP3; ligand concentration 18,77162 and 77902 and 55555
same,"Fluorescence competitive binding assay, fluorescence intensity",SfurOBP3; ligand concentration 20,68113 and 75065 and 101895
same,IC50,"SfurOBP3; SfurOBP3, protein and 1-NPN both 2.0 µM, competitor 2-20 µM, read-out: IC50",> 20 µM
same,"Fluorescence competitive binding assay, fluorescence intensity",SfurOBP1; ligand concentration 2 (μM),7330 and 7109 and 7550
same,"Fluorescence competitive binding assay, fluorescence intensity",SfurOBP1; ligand concentration 4 (μM),7885 and 9070 and 8350
same,"Fluorescence competitive binding assay, fluorescence intensity",SfurOBP1; ligand concentration 6 (μM),9355 and 9996 and 9183
same,"Fluorescence competitive binding assay, fluorescence intensity",SfurOBP1; ligand concentration 8 (μM),11640 and 10265 and 9349
same,"Fluorescence competitive binding assay, fluorescence intensity",SfurOBP1; ligand concentration 10 (μM),10389 and 10452 and 10917
same,"Fluorescence competitive binding assay, fluorescence intensity",SfurOBP1; ligand concentration 12 (μM),10679 and 10989 and 10151
same,"Fluorescence competitive binding assay, fluorescence intensity",SfurOBP1; ligand concentration 14 (μM),12105 and 10979 and 11552
same,"Fluorescence competitive binding assay, fluorescence intensity",SfurOBP1; ligand concentration 16 (μM),10141 and 15672 and 8010
same,"Fluorescence competitive binding assay, fluorescence intensity",SfurOBP1; ligand concentration 18 (μM),13868 and 12649 and 12554
same,"Fluorescence competitive binding assay, fluorescence intensity",SfurOBP1; ligand concentration 20 (μM),12803 and 13119 and 10975
same,IC50,"SfurOBP1; SfurOBP1, protein and 1-NPN both 2.0 µM, competitor 2-20 µM, read-out: IC50",> 20 µM
